Molecules are shown by their SMILES.

For the assay, the target named is T1, KRAS G12C 1-169, his-tagged protein, GDP-loaded (Homo sapiens, UniProt P01116, G12C).
T1 construct: KRAS G12C 1-169, his-tagged protein, GDP-loaded
T1 sequence (P01116 1-169 isoform P01116-2 G12C): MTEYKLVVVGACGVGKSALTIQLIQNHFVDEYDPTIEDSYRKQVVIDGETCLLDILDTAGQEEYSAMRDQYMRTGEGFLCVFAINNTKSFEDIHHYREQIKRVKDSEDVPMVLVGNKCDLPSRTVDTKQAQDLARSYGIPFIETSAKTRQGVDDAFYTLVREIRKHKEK
Briefly: Biochemical assay: covalent binding to KRAS G12C analyzed by mass spectrometry. Further: test concentration or dose not given here. The note with it: compounds 48-246, measured at 2 h.
For the compound `C=CC(=O)N1CCN(c2ncnc3cc(-c4cccc5ncoc45)c(Cl)cc23)CC1` [Compound I-129, 1-(4-(7-(benzo[d]oxazol-7-yl)-6-chloroquinazolin-4-yl)piperazin-1-yl)prop-2-en-1-one], the Binding % entry is “+ (+indicates binding activity from 5% to 25%)”.

With `C=CC(=O)N1CCN(c2ncnc3cc(-c4cccc(C#N)c4)c(Cl)cc23)CC1` [Compound I-130, 3-(4-(4-acryloylpiperazin-1-yl)-6-chloroquinazolin-7-yl)benzonitrile], the Binding % result is listed as “+ (+indicates binding activity from 5% to 25%)”. On to `C=CC(=O)N1CCN(c2ncnc3cc(-c4cccc(C(=O)N(C)C)c4F)c(Cl)cc23)CC1` [Compound I-131, 3-(4-(4-acryloylpiperazin-1-yl)-6-chloroquinazolin-7-yl)-2-fluoro-N,N-dimethylbenzamide], for which the Binding % entry is “+ (+indicates binding activity from 5% to 25%)”. The same measure for `C=CC(=O)N1CCN(c2ncnc3cc(-c4c(F)cccc4F)c(Cl)cc23)CC1` [Compound I-132, 1-(4-(6-chloro-7-(2,6-difluorophenyl)quinazolin-4-yl)piperazin-1-yl)prop-2-en-1-one]: “+++ (+++indicates binding activity greater than 50% and up to 75%)”. The same measure for `C=CC(=O)N1CCN(c2ncnc3cc(-c4ccc(F)cc4O)c(Cl)cc23)CC1` [Compound I-133, 1-0(4-(6-chloro-7-(4-fluoro-2-hydroxyphenyl)quinazolin-4-yl)piperazin-1-yl)prop-2-en-1-one]: “++ (++indicates binding activity greater than 25% and up to 50%)”. For the compound `C=CC(=O)N1CCN(c2ncnc3cc(-c4ccccc4O)c(Cl)cc23)CC1C` (stereo not shown) [Compound I-134, 1-(4-(6-chloro-7-(2-hydroxyphenyl)quinazolin-4-yl)-2-methylpiperazin-1-yl)prop-2-en-1-one], the Binding % entry was “++ (++indicates binding activity greater than 25% and up to 50%)”.

For the compound `C=CC(=O)N1CCN(c2ncnc3cc(-c4cccc5ncccc45)c(Cl)cc23)CC1` [Compound I-135, 1-(4-(6-chloro-7-(quinolin-5-yl)quinazolin-4-yl)piperazin-1-yl)prop-2-en-1-one], the Binding % result was “+ (+indicates binding activity from 5% to 25%)”. The same measure for `C=CC(=O)N1CCN(c2ncnc3cc(-c4cccc5cnccc45)c(Cl)cc23)CC1` [Compound I-136, 1-(4-(6-chloro-7-(isoquinolin-5-yl)quinazolin-4-yl)piperazin-1-yl)prop-2-en-1-one]: “++ (++indicates binding activity greater than 25% and up to 50%)”.

With `C=CC(=O)N1CCN(c2ncnc3cc(-c4ccccc4F)c(C#N)cc23)CC1` [Compound I-137, 4-(4-acryloylpiperazin-1-yl)-7-(2-fluorophenyl)quinazoline-6-carbonitrile], the Binding % entry is recorded as “+ (+indicates binding activity from 5% to 25%)”. Regarding `C=CC(=O)N1CCN(c2ncnc3cc(-c4c(O)cccc4F)c(Cl)cc23)CC1` [Compound I-138, 1-(4-(6-chloro-7-(2-fluoro-6-hydroxyphenyl)quinazolin-4-yl)piperazin-1-yl)prop-2-en-1-one], the Binding % result is recorded as “++++ (++++indicates binding activity greater than 75%)”. For `C=CC(=O)N1CCN(c2ncnc3cc(-c4ccc(F)cc4F)c(Cl)cc23)CC1CC#N` (stereo not shown) [Compound I-139, 2-(1-acryloyl-4-(6-chloro-7-(2,4-difluorophenyl)quinazolin-4-yl)piperazin-2-yl)acetonitrile], the Binding % result is reported as “++++ (++++indicates binding activity greater than 75%)”. Take `C=CC(=O)N1CCN(c2ncnc3cc(-c4c(C)ccc5[nH]ncc45)c(Cl)cc23)CC1` [Compound I-140, 1-(4-(6-chloro-7-(5-methyl-1H-indazol-4-yl)quinazolin-4-yl)piperazin-1-yl)prop-2-en-1-one]: the Binding % result is “+++ (+++indicates binding activity greater than 50% and up to 75%)”. The same measure for `C=CC(=O)N1CCN(c2ncnc3cc(-c4cc(OC(F)(F)F)ccc4F)c(Cl)cc23)CC1` [Compound I-141, 1-(4-(6-chloro-7-(2-fluoro-5-(trifluoromethoxy)phenyl)quinazolin-4-yl)piperazin-1-yl)prop-2-en-1-one]: “+ (+indicates binding activity from 5% to 25%)”; for `C=CC(=O)N1CCN(c2ncnc3cc(-c4cccc(C(=O)NC5CC5)c4)c(Cl)cc23)CC1` [Compound I-142, 3-(4-(4-acryloylpiperazin-1-yl)-6-chloroquinazolin-7-yl)-N-cyclopropylbenzamide]: “+ (+indicates binding activity from 5% to 25%)”; for `C=CC(=O)N1CCN(c2ncnc3cc(-c4cc(C5(C#N)CC5)ccc4F)c(Cl)cc23)CC1` [Compound I-143, 1-(3-(4-(4-acryloylpiperazin-1-yl)-6-chloroquinazolin-7-yl)-4-fluorophenyl)cyclopropanecarbonitrile]: “+++ (+++indicates binding activity greater than 50% and up to 75%)”. The same measure for `C=CC(=O)N1CCN(c2ncnc3cc(-c4ccc5[nH]ncc5c4)c(Cl)cc23)CC1` [Compound I-144, 1-(4-(6-chloro-7-(1H-indazol-5-yl)quinazolin-4-yl)piperazin-1-yl)prop-2-en-1-one]: “+ (+indicates binding activity from 5% to 25%)”; for `C=CC(=O)N1CCN(c2ncnc3cc(-c4ccc(F)cc4F)c(Cl)cc23)CC1C#N` (stereo not shown) [Compound I-145, 1-acryloyl-4-(6-chloro-7-(2,4-difluorophenyl)quinazolin-4-yl)piperazine-2-carbonitrile]: “++++ (++++indicates binding activity greater than 75%)”; for `C=CC(=O)N1CCN(c2ncnc3cc(-c4ccccc4O)c(Cl)cc23)CC1C#N` (stereo not shown) [Compound I-146, 1-acryloyl-4-(6-chloro-7-(2-hydroxyphenyl)quinazolin-4-yl)piperazine-2-carbonitrile]: “++++ (++++indicates binding activity greater than 75%)”. `C=CC(=O)N1CCN(c2ncnc3cc(-c4cc(C5CC5)ccc4F)c(Cl)cc23)CC1` [Compound I-147, 1-(4-(6-chloro-7-(5-cyclopropyl-2-fluorophenyl)quinazolin-4-yl)piperazin-1-yl)prop-2-en-1-one]: the Binding % result is “++ (++indicates binding activity greater than 25% and up to 50%)”. Turning to `C=CC(=O)N1CCN(c2ncnc3cc(-c4cccc5c4CCCC5)c(Cl)cc23)CC1` [Compound I-148, 1-(4-(6-chloro-7-(5,6,7,8-tetrahydronaphthalen-1-yl)quinazolin-4-yl)piperazin-1-yl)prop-2-en-1-one], the Binding % result is “+++ (+++indicates binding activity greater than 50% and up to 75%)”. For `C=CC(=O)N1CCN(c2ncnc3cc(-c4cccc5onc(N)c45)c(Cl)cc23)CC1` [Compound I-149, 1-(4-(7-(3-aminobenzo[d]isoxazol-4-yl)-6-chloroquinazolin-4-yl)piperazin-1-yl)prop-2-en-1-one] the value was “+ (+indicates binding activity from 5% to 25%)”; for `C=CC(=O)N1CCN(c2ncnc3cc(-c4ccccc4F)c(C(F)(F)F)cc23)CC1` [Compound I-150, 1-(4-(7-(2-fluorophenyl)-6-(trifluoromethyl)quinazolin-4-yl)piperazin-1-yl)prop-2-en-1-one], “++++ (++++indicates binding activity greater than 75%)”. Consider `C=CC(=O)N1CCN(c2ncnc3cc(-c4cccc5cn[nH]c45)c(Cl)cc23)CC1` [Compound I-152, 1-(4-(6-chloro-7-(1H-indazol-7-yl)quinazolin-4-yl)piperazin-1-yl)prop-2-en-1-one], for which the Binding % entry was “+++ (+++indicates binding activity greater than 50% and up to 75%)”.

Regarding `C#Cc1ccccc1-c1cc2ncnc(N3CCN(C(=O)C=C)CC3)c2cc1Cl` [Compound I-154, 1-(4-(6-chloro-7-(2-ethynylphenyl)quinazolin-4-yl)piperazin-1-yl)prop-2-en-1-one], the Binding % result is “++ (++indicates binding activity greater than 25% and up to 50%)”. `C=CC(=O)N1CCN(c2ncnc3cc(-c4cc(C(N)=O)ccc4F)c(Cl)cc23)CC1` [Compound I-155, 3-(4-(4-acryloylpiperazin-1-yl)-6-chloroquinazolin-7-yl)-4-fluorobenzamide]: the Binding % entry is “++ (++indicates binding activity greater than 25% and up to 50%)”. For `C=CC(=O)N1CCN(c2ncnc3cc(-c4ccccc4CC4CC4)c(Cl)cc23)CC1` [Compound I-156, 1-(4-(6-chloro-7-(2-(cyclopropylmethyl)phenyl)quinazolin-4-yl)piperazin-1-yl)prop-2-en-1-one] the value was “++ (++indicates binding activity greater than 25% and up to 50%)”. Take `C=CC(=O)N1CCN(c2ncnc3cc(-c4ccccc4C(F)(F)F)ccc23)CC1` [Compound I-157, 1-(4-(7-(2-(trifluoromethyl)phenyl)quinazolin-4-yl)piperazin-1-yl)prop-2-en-1-one]: the Binding % entry is given as “+ (+indicates binding activity from 5% to 25%)”. The same measure for `C=CC(=O)N1CCN(c2ncnc3cc(-c4cccc5c4CC(=O)N5)c(Cl)cc23)CC1` [Compound I-160, 4-(4-(4-acryloylpiperazin-1-yl)-6-chloroquinazolin-7-yl)indolin-2-one]: “+ (+indicates binding activity from 5% to 25%)”; for `C=CC(=O)N1CCN(c2ncnc3cc(-c4ccccc4CC(N)=O)c(Cl)cc23)CC1` [Compound I-161, 2-(2-(4-(4-acryloylpiperazin-1-yl)-6-chloroquinazolin-7-yl)phenyl)acetamide]: “++ (++indicates binding activity greater than 25% and up to 50%)”. For `C=CC(=O)N1CCN(c2ncnc3cc(-c4ccc5cn[nH]c5c4)c(Cl)cc23)CC1` [Compound I-162, 1-(4-(6-chloro-7-(1H-indazol-6-yl)quinazolin-4-yl)piperazin-1-yl)prop-2-en-1-one] the value was “+ (+indicates binding activity from 5% to 25%)”. The same measure for `C=CC(=O)N1CCN(c2ncnc3cc(-c4ccccc4F)c(O)cc23)CC1` [Compound I-163, 1-(4-(7-(2-fluorophenyl)-6-hydroxyquinazolin-4-yl)piperazin-1-yl)prop-2-en-1-one]: “+ (+indicates binding activity from 5% to 25%)”.

For the origin of these results see patent US10111874B2, “Combination therapies for treatment of cancer” (Araxes Pharma LLC, priority 2014, dated 2018).
